From patent publication US4097487A, “Pyrrolidinyl and piperidinyl benzamide derivatives” (Yamanouchi Pharmaceutical Co., Ltd., priority 1975, dated 1978)
Where a name gives a salt, the structure may show the parent alone. Read-outs that look alike come from different tables or passages of the source.

Legend:
[1] = tested on: conditioned avoidance response; assay: Activity of reducing the conditioned avoidance response, shuttle box (Experiment II a); format: in vivo, rat (male, Wister); settings: sc, read-out: ED50, activity of reducing the conditioned avoidance response
Method: (a) Activity of reducing the conditioned avoidance response:
By a shuttle box method using rats (male, Wister, about 300 g.), a test sample was administered subcutaneously to the rats, after 30 minutes, a conditioned stimulation (buzzer noise for at longest 5 seconds) was applied, and then the avoidance response was observed. Then, from the relation of the ratio of inhibition of avoidance response and the amount of the test sample used, ED50 was determined. In addition, the training of applying an electric stimulation (A.C. 40 volts) as an unconditioned stimulation from a grid on a floor for at longest 5 seconds was applied to rats at 20 times/day for 6 days and the rats showing the ratio of avoidance response of higher than 80% were used in the experiment.

[2] = tested on: methamphetamin-induced stereotyped behavior; assay: Activity of reducing the methamphetamin-induced stereotyped behavior (Experiment II b); format: in vivo, rat (male, Wister); settings: sc, read-out: ED50, activity of reducing the methamphetamin-induced stereotyped behavior
Method: (b). Activity of reducing the methamphetamin-induced stereotyped behavior:
A test sample was administered subcutaneously to the rats, after 30 minutes, 5 mg./kg. of methamphetamine was administered intraperitoneally, and then after 60 minutes and 90 minutes since then, the symptom of the methamphetamin-induced stereotyped behavior was observed. From the relation of the ratio of inhibition and the amount of the test sample used, ED50 was determined.

[3] = tested on: apomorphine-induced stereotyped behavior; assay: Activity of reducing the apomorphine-induced stereotyped behavior (Experiment I); format: in vivo, rat (male, Wistar); settings: sc, read-out: ED50, activity of reducing apomorphine-induced stereotyped behavior
[4] = Cataleptogenic activity (Experiment III a); design: species or system mouse (male, ICR); settings: in vivo, sc; mouse, 30 min, fore-limbs hung on horizontal rod for 30 second
Method: (a) Cataleptogenic activity:
By referring to the method by Curvoisier et al (Psychotropic drugs, 373(1957)), a test sample was subcutaneously administered to mice (male, ICR, 8 weeks age) and after 30 minutes since then, the both fore-limb was forcibly hung on a horizontal metallic rod of 2 mm. diameter placed at a height of 6 cm. and when the mouse was kept in that state for 30 second, the activity of the mouse was considered to be a positive cataleptogenic activity. From the relation of the ratio of inhibition and the amount of the test sample used, ED50 was determined.

[5] = Acute toxicity, up-down method (Experiment III b); settings: in vivo, iv, mouse
Method: A test sample was administered to mice (male, ICR, 8 week age) by an intravenous injection and then LD50 was determined by an up-down method.

[6] = according to the Dutch patent; cited from earlier work
[7] = rat, s.c., 30 min before 1.25 mg/Kg apomorphine i.v., observed after 5, 10, 20 min
[8] = rat, s.c., 30 min before conditioned stimulation, shuttle box
[9] = rat, s.c., 30 min before 5 mg./kg. methamphetamine i.p., observed after 60 and 90 min

Row | Structure (SMILES) | ED50 [3, 7] [mg/kg] | ED50 [1, 8] [mg/kg] | ED50 [2, 9] [mg/kg] | also measured
1 | CN(C)CCCN1c2ccccc2Sc2ccc(Cl)cc21 [Chlorpromazine, reference compound] |  |  |  | ED50 ([1]; Rattus norvegicus): 0.8 mg/kg; ED50 ([2]; Rattus norvegicus): 3 mg/kg; ED50 ([3]; Rattus norvegicus): 2.5 mg/kg; ED50 at 0.5 h [4]: 10 mg/kg; LD50 [5]: 59 mg/kg
2 | CCN1CCCC1CNC(=O)c1cc(S(N)(=O)=O)ccc1OC (stereo not drawn) [Sulpiride, reference compound] | > 100 |  |  | 
3 | COc1cc(C(=O)NCCN(C)Cc2ccccc2)cc(OC)c1OC [N-[2-(N'-benzyl-N'-methylamino)ethyl]-3,4,5-trimethoxybenzamide, reference compound] | > 30 |  |  | 
4 | COc1cc(N)c(Cl)cc1C(=O)NCCN(C)Cc1ccccc1 [N-[2-(N'-benzyl-N'-methylamino)ethyl]-4-amino-5-chloro-2-methoxybenzamide] | 0.54 | 0.2 | 3 | ED50 at 0.5 h [4]: 60 mg/kg; LD50 [5]: 48 mg/kg
5 | CCN(CCNC(=O)c1cc(Cl)c(N)cc1OC)Cc1ccccc1 [N-[2-(N'-benzyl-N'-ethylamino)ethyl]-4-amino-5-chloro-2-methoxybenzamide] | 0.2 | 0.1 | 1.8 | 
6 | CCN(CCNC(=O)c1cc(S(=O)(=O)CC)ccc1OC)Cc1ccc(Cl)cc1 [N-[2-(N'-p-chlorophenylmethyl-N'-ethylamino)ethyl]-3-ethylsulfonyl-6-methoxybenzamide hydrochloride] | 0.47 |  | 3 | 
7 | COc1cc(C(=O)NC2CCN(Cc3ccccc3)C2)cc(OC)c1OC (stereo not drawn) [N-(1-benzyl-3-pyrrolidinyl)-3,4,5-trimethoxybenzamide, reference compound] | > 10 |  |  | 
8 | CCN(CCNC(=O)c1cc(Cl)c(N)cc1OC)Cc1ccc(Cl)cc1 [N-[2-(N'-p-chlorophenylmethyl-N'-ethylamino)ethyl]-4-amino-5-chloro-2-methoxybenzamide] | 0.18 | 0.1 | 1 | 
9 | COc1cc(N)c(Cl)cc1C(=O)NCC1CCC(C)N1Cc1ccccc1 (stereo not drawn) [N-(1-benzyl-5-methyl-2-pyrrolidinylmethyl)-4-amino-5-chloro-2-methoxybenzamide] | 0.18 | 0.18 | 1 | ED50 at 0.5 h [4]: 30 mg/kg; LD50 [5]: 49 mg/kg
10 | COc1cc(N)c(Cl)cc1C(=O)NC1CCN(Cc2ccccc2)C1 (stereo not drawn) [N-(1-benzyl-3-pyrrolidinyl)-4-amino-5-chloro-2-methoxybenzamide] | 0.22 | 0.3 | 0.72 | 
11 | COc1cc(N)c(Cl)cc1C(=O)NC1CCN(C2CCCCC2)C1 (stereo not drawn) [N-(1-cyclohexyl-3-pyrrolidinyl)-4-amino-5-chloro-2-methoxybenzamide, reference compound] | 1.8 |  |  | antiemetic activity (in words) [6]: strongest antiemetic activity
12 | CCN(CC)CCNC(=O)c1cc(Cl)c(N)cc1OC [Metoclopramide, reference compound] | 4.1 |  |  | 
13 | COc1cc(N)c(Cl)cc1C(=O)NC1CCN(Cc2ccc(Cl)cc2)C1 (stereo not drawn) [N-(1-p-chlorophenylmethyl-3-pyrrolidinyl)-4-amino-5-chloro-2-methoxybenzamide] | 0.18 | 0.1 |  | 
14 | CCN(CCNC(=O)c1cc(Cl)c(N)cc1OC)Cc1ccc(OC)cc1 [N-[2-(N'-p-methoxyphenylmethyl-N'-ethylamino)ethyl]-4-amino-5-chloro-2-methoxybenzamide] | 0.3 |  |  | 
15 | CCN(CCNC(=O)c1cc(Cl)c(N)cc1OC)Cc1cccc(Cl)c1 [N-[2-(N'-m-chlorophenylmethyl-N'-ethylamino)ethyl]-4-amino-5-chloro-2-methoxybenzamide] | 0.3 |  | 1 | 
16 | CCN1CCCC1CNC(=O)c1cc(S(=O)(=O)CC)ccc1OC (stereo not drawn) [Sultopiride, reference compound] | 18 |  |  | 
17 | CCN(CCNC(=O)c1cc(Cl)c(N)cc1OC)Cc1ccc(F)cc1 [N-[2-(N'-ethyl-N'-p-fluorophenylmethylamino)ethyl]-4-amino-5-chloro-2-methoxybenzamide] | 0.18 |  |  | 
18 | CCS(=O)(=O)c1ccc(OC)c(C(=O)NCC2CCC(C)N2Cc2ccccc2)c1.Cl (stereo not drawn) [N-(1-benzyl-5-methyl-2-pyrrolidinylmethyl)-5-ethylsulfonyl-2-methoxybenzamide hydrochloride] | 0.3 | 0.3 | 1.8 | 
